Measured values taken from article PMC5339975, “Cytotoxicity, antimicrobial and antioxidant activity of eight compounds isolated from Entada abyssinica (Fabaceae)” (BMC Research Notes, 2017).
In brackets after ≈: the same amount, converted by molar mass. Where two headings read alike, the source gives them in different places. Marks after values point to notes of the source that are not given here.

Columns and labels:
[1] = DPPH radical-scavenging assay; conditions: mean ± SD of three experiments
Experimental: The DPPH radical-scavenging activity was assessed by the method previously described.

[2] = ABTS radical assay; conditions: mean ± SD of three experiments
Experimental: The antioxidant activity by ABTS was assessed according to the method previously described.

[3] = test system: Escherichia coli ATCC 25922; experiment: Antibacterial MIC, INT microdilution; assay type: cell-based; conditions: ATCC25922, read-out: MIC Ec
Experimental: (§1) The six bacterial strains included: Pseudomonas aeruginosa ATCC 27853, Bacillus cereus ATCC 14579, Staphylococcus aureus ATCC 29213, Escherichia coli ATCC 25922, Salmonella typhimurium ATCC 14028 and Enterococcus faecalis ATCC 29212. The antimicrobial activity was evaluated by determining the minimal inhibitory concentration (MIC) by the rapid p-iodonitrotetrazolium violet (INT) microdilution method as previously described.

[4] = test system: Bacillus cereus ATCC 14579; experiment: Antibacterial MIC, INT microdilution; assay type: cell-based; conditions: ATCC14579, read-out: MIC Bc
Experimental: as §1

[5] = test system: Salmonella typhimurium ATCC 14028; experiment: Antibacterial MIC, INT microdilution; assay type: cell-based; conditions: Salmonella enterica, read-out: MIC St
Experimental: as §1

[6] = test system: Enterococcus faecalis ATCC 29212; experiment: Antibacterial MIC, INT microdilution; assay type: cell-based; conditions: ATCC29212, read-out: MIC Ef
Experimental: as §1

[7] = test system: Pseudomonas aeruginosa ATCC 27853; experiment: Antibacterial MIC, INT microdilution; assay type: cell-based; conditions: ATCC27853, read-out: MIC Pa
Experimental: as §1

[8] = test system: Staphylococcus aureus ATCC 29213; experiment: Antibacterial MIC, INT microdilution; assay type: cell-based; conditions: ATCC29213, read-out: MIC Sa
Experimental: as §1

[9] = MTT cytotoxicity assay, normal cells; assay type: cell-based; conditions: monkey
Experimental: (§2) Cancer cell lines including human monocytic THP-1 and murine macrophage RAW 264.7 cells and the normal mammalian Vero monkey kidney cell line were obtained from the American Type Culture Collection (Rockville, MD, USA). They were maintained in DMEM under standard cell culture conditions at 37 °C and 5% CO2 in a humidified environment.
(§3) The 3-(4,5-dimethylthiazol-2-yl)-2,5-diphenyltetrazolium bromide (MTT) assay was used to determine the cytotoxicity of the compounds as previously described. The selectivity index (SI) values to identify selective anti-cancer cell activity were calculated by dividing the LC50 values of normal Vero cells by the LC50 of cancer cells.

[10] = test system: THP-1 cells; experiment: MTT cytotoxicity assay, cancer cells; assay type: cell-based; conditions: Homo sapiens, THP-1, read-out: THP-1 LC50
Experimental: as §2, §3

[11] = test system: RAW 264.7 cells; experiment: MTT cytotoxicity assay, cancer cells; assay type: cell-based; conditions: Mus musculus, RAW264.7, read-out: RAW 264.7 LC50
Experimental: as §2, §3

[12] = test system: S. aureus; conditions: cited from earlier work
[13] = Ferric reducing antioxidant power (FRAP) assay; conditions: mean ± SD of three experiments
Experimental: The antioxidant activity by the ferric reducing antioxidant power (FRAP) was assessed according to the method previously described with slight modifications.

[14] = test system: Vero monkey kidney cells; experiment: MTT cytotoxicity assay, normal cells; assay type: cell-based; conditions: normal Vero cells, MTT, mean ± SD
Experimental: as §2, §3

Structure (SMILES) | DPPH (IC50) [1] | ABTS (IC50) [2] | MIC [3] [µg/mL] | MIC [4] [µg/mL] | MIC ([5]; Salmonella typhimurium) [µg/mL] | MIC [6] [µg/mL] | MIC [7] [µg/mL] | MIC [8] [µg/mL] | CC50 [9] [µg/mL] | CC50 [10] [µg/mL] | CC50 [11] [µg/mL] | MIC [12] [µg/mL] | MIC [5] [µg/mL] | CC50 ([9]; normal Vero cells, MTT, mean ± SD, read-out: Vero LC50) [µg/mL] | FRAP [13] | Vero LC50 [14]
O=C1O[C@H]([C@@H](O)CO)C(O)=C1O [Ascorbic acid, reference compound] | 3.44 ± 1.9^a,f µg/mL | 4.15 ± 1.21^d,e µg/mL |  |  |  |  |  |  |  |  |  |  |  |  |  | 
C[C@H]1[C@H](C)CC[C@]2(C(=O)O)CC[C@]3(C)C(=CC[C@@H]4[C@@]5(C)CC[C@H](O)C(C)(C)[C@@H]5CC[C@]43C)[C@H]12 [Compound 1, ursolic acid] |  |  | > 100 | 6.25 (≈ 13.7 µM) | 100 (≈ 219 µM) | > 100 | > 100 | 12.5 (≈ 27.4 µM) | 22.4 ± 2.48 (≈ 49.1 µM) | 9.62 ± 0.59 (≈ 21.1 µM) | 4.56 ± 0.02 (≈ 9.98 µM) | 4 (≈ 8.76 µM) |  |  |  | 
C[C@@H]1O[C@@H](Oc2c(-c3ccc(O)c(O)c3)oc3cc(O)cc(O)c3c2=O)[C@H](O)[C@H](O)[C@H]1O [Compound 2, quercetin-3-O-α-L-rhamnoside] | 0.9 ± 0.06^b µg/mL | 3.53 ± 0.39^b µg/mL | 50 (≈ 112 µM) | 12.5 (≈ 27.9 µM) |  | 25 (≈ 55.8 µM) | 50 (≈ 112 µM) | 12.5 (≈ 27.9 µM) |  | > 100 | 16.4 ± 0.2 (≈ 36.7 µM) |  | 3.12 (≈ 6.96 µM) | 44.8 ± 2.83 (≈ 100 µM) | 76.01 ± 1.10^b µmol FeSO4/g | 
COC(=O)/C=C(/C)CC[C@]1(C)[C@H]2CCC=C(C(=O)O)[C@]2(C)CC[C@@H]1C [Compound 4, (8S)-kolavic acid 15-methyl ester] | – (– 100 µg/mL) | – (– 100 µg/mL) | > 100 | 25 (≈ 71.7 µM) | 100 (≈ 287 µM) | > 100 | > 100 | 25 (≈ 71.7 µM) | 47.5 ± 0.63 (≈ 136 µM) | 49.8 ± 3.03 (≈ 143 µM) | 52.3 ± 1.3 (≈ 150 µM) |  |  |  | 1.93 ± 0.14^a µmol FeSO4/g | 
C[C@@H]1CC[C@@]2(C)C(C(=O)O)=CCC[C@@H]2[C@@]1(C)CC(=O)O [Compound 5, 13,14,15,16-tetranor-3-clerodene-12,18-dioic acid] | – (– 100 µg/mL) | – (– 100 µg/mL) | > 100 | > 100 | > 100 | > 100 | > 100 | > 100 | 41.9 ± 1.85 (≈ 149 µM) | 21.8 ± 1.11 (≈ 77.8 µM) | 16.1 ± 1 (≈ 57.4 µM) |  |  |  | 5.09 ± 0.40^c µmol FeSO4/g | 
COC(=O)c1cc(O)c(O)c(O)c1 [Compound 6, methyl gallate] | 0.48 ± 0.02^c µg/mL | 2.53 ± 0.49^d µg/mL | > 100 | 50 (≈ 272 µM) | 25 (≈ 136 µM) | > 100 | > 100 | 50 (≈ 272 µM) | 30.6 ± 3.09 (≈ 166 µM) | 75 ± 1.68 (≈ 407 µM) | 36.9 ± 1.27 (≈ 200 µM) |  |  |  | 103.98 ± 13.70^d µmol FeSO4/g | 
COc1c(O)c(O)cc2c1COc1c-2oc2cc(O)cc(O)c2c1=O [Compound 7, entadanin] | 1.12 ± 0.10^c,d µg/mL | 4.13 ± 0.10^e µg/mL | 12.5 (≈ 36.3 µM) | 25 (≈ 72.6 µM) | 1.56 (≈ 4.53 µM) | > 100 | 25 (≈ 72.6 µM) | 12.5 (≈ 36.3 µM) | 55.65 ± 0.3 (≈ 162 µM) | 84.3 ± 3.3 (≈ 245 µM) | 19.1 ± 0.25 (≈ 55.5 µM) |  |  |  | 72.41 ± 2.02^b,e µmol FeSO4/g | 
O=C(CCCCCCCCCCCCCCCCCCCCCCCCC(=O)OC[C@@H](O)CO)OC[C@@H](O)CO [Compound 8, bis-[(S)-(2,3-dihydroxypropyl)] hexacosanedioate] | – (– 100 µg/mL) | – (– 100 µg/mL) | > 100 | > 100 | > 100 | > 100 | > 100 | > 100 | 80.5 ± 4.83 (≈ 140 µM) | 65 ± 6.88 (≈ 113 µM) | 86.5 ± 4.61 (≈ 151 µM) |  |  |  | 22.98 ± 4.29^f µmol FeSO4/g | 
COc1cccc2c1C(=O)c1c(O)c3c(c(O)c1C2=O)C[C@@](O)(C(=O)CO)C[C@@H]3O[C@H]1C[C@H](N)[C@H](O)[C@H](C)O1 [Doxorubicin, reference compound] |  |  |  |  |  |  |  |  |  | > 100 | 0.5 (≈ 0.92 µM) |  |  |  |  | 9.35 ± 0.66^h µg/mL
CNC(C)C1CCC(N)C(OC2C(N)CC(N)C(OC3OCC(C)(O)C(NC)C3O)C2O)O1 (centres unmarked) [Gentamicin, reference compound] |  |  | 1 (≈ 2.09 µM) | 0.5 (≈ 1.05 µM) | 2 (≈ 4.19 µM) | 0.25 (≈ 0.523 µM) | 0.25 (≈ 0.523 µM) | 0.5 (≈ 1.05 µM) |  |  |  |  |  |  |  | 
COc1ccc(C[C@H](N)C(=O)N[C@H]2[C@@H](O)[C@H](n3cnc4c(N(C)C)ncnc43)O[C@@H]2CO)cc1 [Puromycin, reference compound] |  |  |  |  |  |  |  |  |  | 0.4 ± 0.02 (≈ 0.848 µM) | 1.15 ± 0.17 (≈ 2.44 µM) |  |  |  |  | 5.32 ± 0.90^i µg/mL
Cc1c(C)c2c(c(C)c1O)CCC(C)(C(=O)O)O2 (centres unmarked) [Trolox, reference compound] | 8.71 ± 2.03^e µg/mL | 10.38 ± 2.4^a,f µg/mL |  |  |  |  |  |  |  |  |  |  |  |  |  | 
